The values below are quoted from earlier work in patent publication US20260041744A1, “Methods for Treating Pompe Disease” (Amicus Therapeutics, Inc., priority 2022, published 2026).

This data set concerns subjects with late-onset Pompe disease (LOPD). Conditions: systematic review, 368 LOPD subjects (Toscano and Schoser); cited from earlier work.

Some results are limits rather than exact numbers.

Turning to alglucosidase alfa [reference compound], the “subjects without initial improvement during treatment” value is on record as more than 30%.
